Reference: US9109048B2, “Inhibition of tumor growth” (priority 1998, dated 2015)
Converted amounts (≈) assume the structure as drawn. Read-outs that look alike come from different tables or passages of the source. Square brackets hold non-standard residues; d marks the D form. Ends that are not written are not given here. Peptide text beside a SMILES is read from it. Orn = NCCC[C@H](N)C(=O)O

Columns and labels:
[1] = tested on: Escherichia coli ATCC 25922; test: MIC (minimum inhibitory concentration) test, microdilution; format: cell-based
Protocol: (§1) The bacterial strains used were: Escherichia coli ATCC 25922 and Staphylococcus aureus ATCC 25923. All strains were stored at −70° C. The bacteria were grown in 2% Bacto Peptone water (Difco 1807-17-4). All tests were performed with bacteria in mid-logarithmic growth phase. Determination of the minimum inhibitory concentration (MIC) of the peptides for bacterial strains were performed in 1% Bacto Peptone water. A standard microdilution technique with an inoculum of 2×10^6 CFU/ml was used. All assays were performed in triplets. Since the peptides are positively charged and therefore could adhere to the plastic wells, we controlled the actual concentration of the peptides in the solution by HPLC. There was no difference between the concentration of the peptides before or after adding the solution to the plastic wells.

[2] = tested on: MRSA (methicillin resistant S. aureus); format: cell-based
Protocol: as §1
(§2) Table 15 below gives the antibacterial activity and toxicity data for some preferred peptides of the invention. MRSA is methicillin resistant S. aureus and MRSE is methicilin resistant S. epidermidis.

[3] = tested on: human red blood cells; test: Hemolytic assay; format: cell-based
Protocol: The hemolytic activities of the peptides were determined using fresh human red blood cells. 8 ml blood was taken from a healthy person. 4 ml blood was transferred to a polycarbonate tube containing heparin to a final concentration of 10 U/ml, and the remaining 4 ml blood was transferred to a glass tube containing EDTA with final concentration of 15% EDTA. The erythrocytes were isolated from heparin-treated blood by centrifugation in 1500 rpm for 10 min and washed three times with phosphate-buffered saline (PBS) to remove plasma and buffy coat. The cell pellet was resuspended in PBS to make the final volume of 4 ml. The peptide was diluted to a concentration of 2 mg/ml and 0.1 mg/ml. The peptide was further diluted to the concentrations as stated in Table 1. For each tube PBS was added first, then RBCs and peptide solutions. The hematocrit in the blood treated with EDTA was determined after 30 min with Sysmex K-1000, and the resuspended RBCs were diluted into 10% hematocrit. RBCs in PBS (1%) with and without peptides (Table 18) were incubated in a shaker at 37° for 1 hour and then centrifuged at 4000 rpm for 5 min. The supernatant were carefully transferred to new polycarbonate tubes and the absorbance of the supernatant was measured at 540 nm. Baseline hemolysis was hemoglobin released in the presence of PBS, and 100% hemolysis was hemoglobin released in the presence of 0.1% Triton X-100.

[4] = tested on: Staphylococcus aureus ATCC 25923; test: MIC (minimum inhibitory concentration) test, microdilution; format: cell-based
Protocol: as §1

[5] = tested on: MRSE (methicilin resistant S. epidermidis); format: cell-based
Protocol: as §1, §2

[6] = tested on: human promyelotic leukemia cell line HL 60; test: Cytotoxicity on HL 60 cells, MTT; format: cell-based
Protocol: HL 60 cells, 1×10^4 were incubated with peptides 50, 30, 20, 10, 5, 1 μg, 1000-20 μg/ml in 2 hours and coloured with MTT;

[7] = tested on: Meth A fibrosarcoma; test: Tumor regression, murine Meth A fibrosarcoma; format: in vivo, mice
Protocol: Specific pathogen-free CB6F1 (Balb/c×C57 BL/6) female mice of about 8 weeks of age were obtained from Charles River (Germany). The mice were kept on standard laboratory chow and water. Tumor bearing mice were serologically screened for viral (LDH, CMV) and mycoplasmic infection and in all cases tested negative.
After a single inoculation of 5×10^7 viable Meth A cells, different LF peptides were injected intratumorally (LFB-14-31, LFB 17-31 Pmc, 500 μg in a 50 μl dose; LFB 17-31, 1000 μg in a 50 μl dose), on day 7 and day 10. LFB 14-31 was also injected intraperitoneally (PBI), 500 μg/ml. Saline only was injected in the control mice (50 μl) (K1,K2,K3). The tumor diameter (mean of transversal and longitudinal) were measured with an electronic calipper.

[8] = Table 1, synthetic lactoferricins
[9] = injected intratumorally on day 7 and day 10

| MIC E. coli ([1]; ATCC 25922) [µM] | MIC E. coli ([1]; Table 15) [µg/mL] | MIC MRSA ([2]; Table 15) [µg/mL] | MIC MRSA ([2]; methicillin resistant) [µM] | MIC S. aureus ([4]; Table 15) [µg/mL] | MIC MRSE ([5]; methicilin resistant) [µM] | Compound | EC50 ([3]; red cells of human) [µM] | EC 50 (toxicity, hemolysis) ([3]; red cells of human) [µg/mL] | also measured |
| --- | --- | --- | --- | --- | --- | --- | --- | --- | --- |
| 4.3 | 10.0 | 2.5 | 1.1 | 2.5 | – | CSCC[C@H](NC(=O)[C@H](CCCNC(=N)N)NC(=O)[C@H](Cc1c[nH]c2ccccc12)NC(=O)[C@H](CCC(N)=O)NC(=O)[C@H](Cc1c(S(=O)(=O)c2c(C)c(C)c3c(c2C)CCC(C)(C)O3)[nH]c2ccccc12)NC(=O)[C@H](CCCNC(=N)N)NC(=O)[C@H](CCCNC(=N)N)NC(=O)[C@H](CSCNC(C)=O)NC(=O)[C@H](CCCCN)NC(=O)[C@@H](N)Cc1ccccc1)C(=O)N[C@@H](CCCCN)C(=O)N[C@@H](CCCCN)C(=O)N[C@@H](CC(C)C)C(=O)NCC(=O)N[C@@H](C)C(=O)O [LFB PMC6] | – | >1000 | MIC E. coli ([1]; Table 13): 10 µg/mL |
| 4.5 | – | – | 1.1 | – | 1.1 | H-FKWRRWQWRMKKLWA-OH [LFBW3,14, H2N-Phe-Lys-Trp-Arg-Arg-Trp-Gln-Trp-Arg-Met-Lys-Lys-Leu-Trp-Ala-COOH] | – | >1000 | MIC S. aureus ([4]; Table 15, 14): 2.5 µg/mL; MIC E. coli ([1]; Table 14): 10 µg/mL; MIC E. coli ([1]; Table 15, 14): 10.0 µg/mL; MIC MRSE ([5]; Table 15, 14): 2.5 µg/mL; MIC MRSA ([2]; Table 15, 14): 2.5 µg/mL |

Further lines, the compound ahead of its results:

| Compound | MIC E. coli ([1]; ATCC 25922) [µM] | MIC E. coli ([1]; Table 15) [µg/mL] | MIC MRSA ([2]; Table 15) [µg/mL] | MIC MRSA ([2]; methicillin resistant) [µM] | MIC S. aureus ([4]; Table 15) [µg/mL] | MIC MRSE ([5]; methicilin resistant) [µM] | EC50 ([3]; red cells of human) [µM] | EC 50 (toxicity, hemolysis) ([3]; red cells of human) [µg/mL] | also measured |
| --- | --- | --- | --- | --- | --- | --- | --- | --- | --- |
| CSCC[C@H](NC(=O)[C@H](CCCNC(=N)N)NC(=O)[C@H](Cc1c[nH]c2ccccc12)NC(=O)[C@H](C)NC(=O)[C@H](Cc1c[nH]c2ccccc12)NC(=O)[C@H](CCCNC(=N)N)NC(=O)[C@H](CCCNC(=N)N)NC(=O)[C@H](C)NC(=O)[C@H](CCCCN)NC(=O)[C@H](Cc1ccccc1)NC(=O)[C@H](Cc1c[nH]c2ccccc12)NC(=O)[C@H](C)NC(=O)[C@@H]1CCCN1)C(=O)N[C@@H](CCCCN)C(=O)N[C@@H](CCCCN)C(=O)N[C@@H](CC(C)C)C(=O)N[C@@H](C)C(=O)N[C@@H](C)C(=O)O [LFB 14-31 A2,6,10,17] | 8.8 | 20.0 | 5.0 | 2.2 | – | – | > 440 | >1000 | MIC E. coli ([1]; Table 8): 20 µg/mL |
| CSCC[C@H](NC(=O)[C@H](CCCNC(=N)N)NC(=O)[C@H](Cc1ccc2ccccc2c1)NC(=O)[C@H](CCC(N)=O)NC(=O)[C@H](Cc1ccc2ccccc2c1)NC(=O)[C@H](CCCNC(=N)N)NC(=O)[C@H](CCCNC(=N)N)NC(=O)[C@H](CSCNC(C)=O)NC(=O)[C@H](CCCCN)NC(=O)[C@@H](N)Cc1ccccc1)C(=O)N[C@@H](CCCCN)C(=O)N[C@@H](CCCCN)C(=O)N[C@@H](CC(C)C)C(=O)NCC(=O)N[C@@H](C)C(=O)O [LFB Nal6,8] | – | 10.0 | 5.0 | – | 20.0 | – | – | >1000 | MIC S. aureus ([4]; Table 9): 20 µg/mL; MIC E. coli ([1]; Table 9): 10 µg/mL |
| YRAWRWAWRWR-NH2 [LFB 17-27 A3,7 R2,11 W4,10 Y1 NH2] | 5.9 | 10.0 | – | – | 2.5 | 1.5 | – | – | MIC S. aureus ([4]; ATCC 25923): 1.5 µM; MIC MRSE ([5]; Table 15): 2.5 µg/mL |
| RRWYRWWR-NH2 [LFM 17-24 R1,2,8 W3,7Y4NH2] | 3.7 | 5.0 | 1.0 | 0.7 | – | 1.8 | > 733 | >1000 | MIC E. coli ([1]; Table 12): 5 µg/mL; MIC MRSE ([5]; Table 15): 2.5 µg/mL |
| CC[C@H](C)[C@H](NC(=O)[C@H](CO)NC(=O)[C@@H]1CCCN1C(=O)[C@H](C)NC(=O)CNC(=O)[C@H](CC(C)C)NC(=O)[C@H](CCCCN)NC(=O)[C@H](CCCCN)NC(=O)[C@H](CCSC)NC(=O)[C@H](CCCNC(=N)N)NC(=O)[C@H](Cc1c[nH]c2ccccc12)NC(=O)[C@H](CCC(N)=O)NC(=O)[C@H](Cc1c[nH]c2ccccc12)NC(=O)[C@H](CCCNC(=N)N)NC(=O)[C@H](CCCNC(=N)N)NC(=O)[C@H](CSCNC(C)=O)NC(=O)[C@H](CCCCN)NC(=O)[C@@H](N)Cc1ccccc1)C(=O)N[C@H](C(=O)N[C@@H](CSCNC(C)=O)C(=O)N[C@H](C(=O)N[C@@H](CCCNC(=N)N)C(=O)N[C@@H](CCCNC(=N)N)C(=O)N[C@@H](C)C(=O)N[C@@H](Cc1ccccc1)C(=O)O)C(C)C)[C@@H](C)O [LFB (17-41), reference compound] | – | – | – | – | – | – | – | – | Minimum inhibitory concentration (MIC) S. aureus ATCC 25923 [4, 8]: 30 µg/mL; Minimum inhibitory concentration (MIC) E. coli ATCC 25922 [1, 8]: 30 µg/mL; cytotoxic effect on human HL 60 cells ([6]; FIG. 7, concentrations tested): weak concentration dependant cytotoxic effect |
| CSCC[C@H](NC(=O)[C@H](CCCNC(=N)N)NC(=O)[C@H](Cc1c[nH]c2ccccc12)NC(=O)[C@H](CCC(N)=O)NC(=O)[C@H](Cc1c[nH]c2ccccc12)NC(=O)[C@H](CCCNC(=N)N)NC(=O)[C@H](CCCNC(=N)N)NC(=O)[C@H](CSCNC(C)=O)NC(=O)[C@H](CCCCN)NC(=O)[C@H](Cc1ccccc1)NC(=O)[C@H](Cc1c[nH]c2ccccc12)NC(=O)[C@H](CCC(=O)O)NC(=O)[C@@H]1CCCN1)C(=O)N[C@@H](CCCCN)C(=O)N[C@@H](CCCCN)C(=O)N[C@@H](CC(C)C)C(=O)NCC(=O)N[C@@H](C)C(=O)O [LFB 14-31] | – | – | – | – | – | – | – | – | effect on Meth A tumors [7, 9]: induced regression of the Meth A tumors; effect on Meth A tumors ([7]; treated intraperitoneally): tumors were also eradicated; Minimum inhibitory concentration (MIC) S. aureus ATCC 25923 ([4]; Table 1, value in parentheses): 80 µM; Minimum inhibitory concentration (MIC) E. coli ATCC 25922 ([1]; Table 1, value in parentheses): 28 µM; cytotoxic effect on human HL 60 cells [6]: no cytotoxic effect |
| CSCC[C@H](NC(=O)[C@H](CCCN)NC(=O)[C@H](Cc1c[nH]c2ccccc12)NC(=O)[C@H](C)NC(=O)[C@H](Cc1c[nH]c2ccccc12)NC(=O)[C@H](CCCN)NC(=O)[C@H](Cc1ccccc1)NC(=O)[C@H](C)NC(=O)[C@H](CCCN)NC(=O)[C@H](CCCN)NC(=O)[C@H](Cc1c[nH]c2ccccc12)NC(=O)[C@H](C)NC(=O)[C@@H]1CCCN1)C(=O)N[C@@H](CC(C)C)C(=O)N[C@@H](CCCN)C(=O)N[C@@H](CCCN)C(=O)N[C@@H](C)C(=O)N[C@@H](C)C(=O)O (H-PAW[Orn][Orn]AF[Orn]WAW[Orn]ML[Orn][Orn]AA-OH; N-terminus assumed) | – | – | 2.5 | 1.2 | 2.5 | – | 202 | – | MIC S. aureus ([4]; ATCC 25923): 1.2 µM; EC 50 (toxicity, hemolysis) ([3]; Table 15): 425 µg/mL (≈ 202 µM) |
| CSCC[C@H](NC(=O)[C@H](CCCNC(=N)N)NC(=O)[C@H](Cc1c[nH]c2ccccc12)NC(=O)[C@H](CCC(N)=O)NC(=O)[C@H](Cc1c[nH]c2ccccc12)NC(=O)[C@H](CCCNC(=N)N)NC(=O)[C@H](CCCNC(=N)N)NC(=O)[C@H](CSCNC(C)=O)NC(=O)[C@H](CCCCN)NC(=O)[C@@H](N)Cc1ccccc1)C(=O)N[C@@H](CCCCN)C(=O)N[C@@H](CCCCN)C(=O)N[C@@H](CC(C)C)C(=O)NCC(=O)N[C@@H](C)C(=O)O [LFB 17-31, H2N-Phe-Lys-Cys-Arg-Arg-Trp-Gln-Trp-Arg-Met-Lys-Lys-Leu-Gly-Ala-COOH] | – | – | – | – | – | – | – | – | effect on Meth A tumors [7, 9]: induced regression of the Meth A tumors; Minimum inhibitory concentration (MIC) S. aureus ATCC 25923 ([4]; Table 1, value in parentheses): 50 µM; Minimum inhibitory concentration (MIC) E. coli ATCC 25922 ([1]; Table 1, value in parentheses): 20 µM; cytotoxic effect on human HL 60 cells ([6]; FIG. 7, concentrations tested): no cytotoxic effect |
| RWWRYWR-NH2 [LFM 18-24 R1,7 W2,3,6Y5NH2, ARG-TRP-TRP-ARG-TYR-TRP-ARG-CONH2] | 8.3 | 10.0 | – | – | – | 0.8 | > 829 | >1000 | MIC S. aureus ([4]; ATCC 25923): 0.4 to 0.8 µM; MIC E. coli ([1]; Table 12): 10 µg/mL; MIC E. coli ([1]; Table 16, peptides with D-amino acids): 10 µg/mL; MIC MRSE ([5]; Table 15): 1.0 µg/mL |
